Assay results: PMC10082216 (Nature Communications, 2023)
Where two headings read alike, the source gives them in different places.

Experiment: TD-6450 phase I clinical study (SAD/MAD): pharmacokinetics
Assay type: in vivo, human
Conditions: human; for TD-6450 Concentration (ng/ml), Female subjects: in vivo; for TD-6450 Concentration (ng/ml), Female subjects / concentration at 1 h / concentration at 2 h / concentration at 3 h / concentration at 4 h / concentration at 6 h / concentration at 8 h / concentration at 12 h / concentration at 15 min / concentration at 24 h / concentration at 30 min / concentration at 48 h / concentration at 72 h / concentration at 96 h / concentration at 120 h / concentration at 144 h / concentration at 168 h: female; for concentration at 1 h / concentration at 2 h / concentration at 3 h / concentration at 4 h / concentration at 6 h / concentration at 8 h / concentration at 12 h / concentration at 15 min / concentration at 24 h / concentration at 30 min / concentration at 48 h / concentration at 72 h / concentration at 96 h / concentration at 120 h / concentration at 144 h / concentration at 168 h: Female subjects, read-out: Concentration
Method: Primary and secondary outcomes were pre-defined as follows: Safety and tolerability as a primary outcome, pharmacokinetics as a secondary outcome. Safety and tolerability were evaluated using standard measures, including adverse event (AE) monitoring, clinical laboratory tests (hematology, serum chemistry, coagulation, and urinalysis), vital signs, physical examinations, and 12-lead electrocardiograms (ECGs). […]
This study was conducted in two parts, Part A (SAD) and Part B (MAD). For the Part A, the age of enrolled subjects ranged from 20 to 60 years, with a mean age range of 32.1 to 46.2 years. Most subjects were male (73 total subjects) and most were white (55 subjects) or black (22 subjects). For Part B of the study, ages ranged from 23 to 60 years with a similar mean age across treatment groups. Most subjects were male (25 total subjects) and all were either white (18 subjects) or black (12 subjects). For each part of the study, the mean body mass index (BMI) and creatinine clearance were similar across treatment groups. […] Part A: Healthy subjects were sequentially enrolled and randomly assigned to each dose cohort (up to 10 dose-ascending cohorts were planned, including a fed arm in the food effect cohort) to receive either a single dose of TD-6450 or placebo. For each dose cohort, 8 subjects were randomized in a 3:1 ratio (6 subjects received TD-6450 and 2 subjects received placebo). The starting dose of TD-6450 was 0.5 mg with a planned maximum dose of 1000 mg. Upon review of the 500-mg cohort PK data, the decision was made to not escalate to the 1000-mg cohort because of exposure saturation at ≥ 500 mg. The following doses were administered: 0.5 mg, 1.5 mg, 5 mg, 15 mg, 30 mg, 60 mg, 120 mg, 240 mg, and 500 mg. Part B: Healthy subjects were sequentially enrolled in 3 ascending dose cohorts (TD-6450 60 mg, 120 mg, and 240 mg) and randomly assigned to receive either TD-6450 or placebo as once daily doses for 14 days. For each dose cohort, 10 subjects were randomized in a 4:1 ratio (8 subjects received TD-6450 and 2 subjects received placebo). Blinded safety, tolerability, and available PK data after each dose cohort were reviewed by the Safety Data Review Committee (SDRC) before escalation to the next dosing cohort for both part A and B. Subjects of the clinical study were randomly assigned to each cohort. Randomizations codes were assigned to the subjects. All study subjects, study investigators, and the sponsor’s staff involved in the conduct of the study were blinded to treatment assignment. The only personnel who had access to the randomization code before database lock were: The pharmacist or pharmacy staff member who prepared drug or placebo capsules for administration to the subject according to the randomization code and the bioanalytical contract laboratory that analyzed the PK samples (plasma and urine).

CNC(=O)N1C[C@@H](C)N(c2ccc(C(=O)Nc3ccc(-c4ccc(-c5c[nH]c([C@@H]6CCCN6C(=O)[C@@H](NC(=O)OC)C(C)C)n5)cc4)c(OC(F)(F)F)c3)cn2)C[C@@H]1C [TD-6450]
Cmax at 1 day (both sexes, plasma, oral, 120 mg, MAD 120 mg, day 1, read-out: Cmax Mean ± SD, D1): 216 ± 58 nM | Cmax at 14 day (both sexes, plasma, oral, 120 mg, MAD 120 mg, day 14, read-out: Cmax Mean ± SD, D14): 1010 ± 349 nM | half-life at 14 day (both sexes, plasma, oral, 120 mg, MAD 120 mg, day 14, read-out: t1/2 Mean ± SD, D14 (converted)): 66.4 ± 15 h | Cmax (both sexes, plasma, oral, 120 mg, SAD 120 mg, read-out: Cmax Mean ± SD): 174 ± 93.9 nM | half-life (both sexes, plasma, oral, 120 mg, SAD 120 mg, read-out: t1/2 Mean ± SD (converted)): 78.4 ± 13 h | Cmax (both sexes, plasma, oral, 240 mg, MAD 240 mg, day 1, read-out: Cmax Mean ± SD, D1): 459 ± 203 nM | Cmax (both sexes, plasma, oral, 240 mg, MAD 240 mg, day 14, read-out: Cmax Mean ± SD, D14): 1770 ± 218 nM | half-life (both sexes, plasma, oral, 240 mg, MAD 240 mg, day 14, read-out: t1/2 Mean ± SD, D14 (converted)): 59.8 ± 12 h | Cmax (both sexes, plasma, oral, 240 mg, SAD 240 mg, read-out: Cmax Mean ± SD): 278 ± 134 nM | half-life (both sexes, plasma, oral, 240 mg, SAD 240 mg, read-out: t1/2 Mean ± SD (converted)): 64.7 ± 7.7 h | Cmax (both sexes, plasma, oral, 500 mg, SAD 500 mg, read-out: Cmax Mean ± SD): 244 ± 114 nM | half-life (both sexes, plasma, oral, 500 mg, SAD 500 mg, read-out: t1/2 Mean ± SD (converted)): 54.9 ± 5.5 h | TD-6450 Concentration (ng/ml), Female subjects (4 h): 48.60 ng/mL | TD-6450 Concentration (ng/ml), Female subjects (6 h): 213.00 ng/mL | TD-6450 Concentration (ng/ml), Female subjects (8 h): 215.00 ng/mL | concentration at 1 h (plasma, oral, 0.5 mg, SAD arm NCT02022306, Dose 0.50, 1 Hour): 0 ng/mL | concentration at 2 h (plasma, oral, 0.5 mg, SAD arm NCT02022306, Dose 0.50, 2 Hours): 0 ng/mL | concentration at 3 h (plasma, oral, 0.5 mg, SAD arm NCT02022306, Dose 0.50, 3 Hours): 0.52 ng/mL | concentration at 4 h (plasma, oral, 0.5 mg, SAD arm NCT02022306, Dose 0.50, 4 Hours): 0.48 ng/mL | concentration at 6 h (plasma, oral, 0.5 mg, SAD arm NCT02022306, Dose 0.50, 6 Hours): 0.67 ng/mL | concentration at 8 h (plasma, oral, 0.5 mg, SAD arm NCT02022306, Dose 0.50, 8 Hours): 0.31 ng/mL | concentration at 12 h (plasma, oral, 0.5 mg, SAD arm NCT02022306, Dose 0.50, 12 Hours): 0 ng/mL | concentration at 15 min (plasma, oral, 0.5 mg, SAD arm NCT02022306, Dose 0.50, 15 Minutes): 0 ng/mL | concentration at 24 h (plasma, oral, 0.5 mg, SAD arm NCT02022306, Dose 0.50, 24 Hours): 0 ng/mL | concentration at 30 min (plasma, oral, 0.5 mg, SAD arm NCT02022306, Dose 0.50, 30 Minutes): 0 ng/mL | concentration at 48 h (plasma, oral, 0.5 mg, SAD arm NCT02022306, Dose 0.50, 48 Hours): 0.26 ng/mL | concentration at 72 h (plasma, oral, 0.5 mg, SAD arm NCT02022306, Dose 0.50, 72 Hours): 0.28 ng/mL | concentration at 96 h (plasma, oral, 0.5 mg, SAD arm NCT02022306, Dose 0.50, 96 Hours): 0 ng/mL | concentration at 120 h (plasma, oral, 0.5 mg, SAD arm NCT02022306, Dose 0.50, 120 Hours): 0 ng/mL | concentration at 144 h (plasma, oral, 0.5 mg, SAD arm NCT02022306, Dose 0.50, 144 Hours): 0 ng/mL | concentration at 168 h (plasma, oral, 0.5 mg, SAD arm NCT02022306, Dose 0.50, 168 Hours): 0 ng/mL | concentration at 1 h (plasma, oral, 5 mg, SAD arm NCT02022306, Dose 5.00, 1 Hour): 0.91 ng/mL | concentration at 2 h (plasma, oral, 5 mg, SAD arm NCT02022306, Dose 5.00, 2 Hours): 2.32 ng/mL | concentration at 3 h (plasma, oral, 5 mg, SAD arm NCT02022306, Dose 5.00, 3 Hours): 3.81 ng/mL | concentration at 4 h (plasma, oral, 5 mg, SAD arm NCT02022306, Dose 5.00, 4 Hours): 4.11 ng/mL | concentration at 6 h (plasma, oral, 5 mg, SAD arm NCT02022306, Dose 5.00, 6 Hours): 4.27 ng/mL | concentration at 8 h (plasma, oral, 5 mg, SAD arm NCT02022306, Dose 5.00, 8 Hours): 3.7 ng/mL | concentration at 12 h (plasma, oral, 5 mg, SAD arm NCT02022306, Dose 5.00, 12 Hours): 3.01 ng/mL | concentration at 15 min (plasma, oral, 5 mg, SAD arm NCT02022306, Dose 5.00, 15 Minutes): 0 ng/mL | concentration at 24 h (plasma, oral, 5 mg, SAD arm NCT02022306, Dose 5.00, 24 Hours): 2.55 ng/mL | concentration at 30 min (plasma, oral, 5 mg, SAD arm NCT02022306, Dose 5.00, 30 Minutes): 0 ng/mL | concentration at 48 h (plasma, oral, 5 mg, SAD arm NCT02022306, Dose 5.00, 48 Hours): 2.13 ng/mL | concentration at 72 h (plasma, oral, 5 mg, SAD arm NCT02022306, Dose 5.00, 72 Hours): 1.75 ng/mL | concentration at 96 h (plasma, oral, 5 mg, SAD arm NCT02022306, Dose 5.00, 96 Hours): 1.15 ng/mL | concentration at 144 h (plasma, oral, 5 mg, SAD arm NCT02022306, Dose 5.00, 144 Hours): 0.77 ng/mL | concentration at 168 h (plasma, oral, 5 mg, SAD arm NCT02022306, Dose 5.00, 168 Hours): 0.61 ng/mL | concentration at 1 h (plasma, oral, 15 mg, SAD arm NCT02022306, Dose 15.00, 1 Hour): 1.46 ng/mL | concentration at 2 h (plasma, oral, 15 mg, SAD arm NCT02022306, Dose 15.00, 2 Hours): 10.1 ng/mL | concentration at 3 h (plasma, oral, 15 mg, SAD arm NCT02022306, Dose 15.00, 3 Hours): 13.9 ng/mL | concentration at 4 h (plasma, oral, 15 mg, SAD arm NCT02022306, Dose 15.00, 4 Hours): 18 ng/mL | concentration at 6 h (plasma, oral, 15 mg, SAD arm NCT02022306, Dose 15.00, 6 Hours): 18.1 ng/mL | concentration at 8 h (plasma, oral, 15 mg, SAD arm NCT02022306, Dose 15.00, 8 Hours): 15.1 ng/mL | concentration at 12 h (plasma, oral, 15 mg, SAD arm NCT02022306, Dose 15.00, 12 Hours): 10.7 ng/mL | concentration at 15 min (plasma, oral, 15 mg, SAD arm NCT02022306, Dose 15.00, 15 Minutes): 0 ng/mL | concentration at 24 h (plasma, oral, 15 mg, SAD arm NCT02022306, Dose 15.00, 24 Hours): 9.09 ng/mL | concentration at 30 min (plasma, oral, 15 mg, SAD arm NCT02022306, Dose 15.00, 30 Minutes): 0 ng/mL | concentration at 48 h (plasma, oral, 15 mg, SAD arm NCT02022306, Dose 15.00, 48 Hours): 6.98 ng/mL | concentration at 72 h (plasma, oral, 15 mg, SAD arm NCT02022306, Dose 15.00, 72 Hours): 5.88 ng/mL | concentration at 96 h (plasma, oral, 15 mg, SAD arm NCT02022306, Dose 15.00, 96 Hours): 5.19 ng/mL | concentration at 120 h (plasma, oral, 15 mg, SAD arm NCT02022306, Dose 15.00, 120 Hours): 4.42 ng/mL
